Experimental data as given in paper PMC9959349, “Discovery of the 3-Amino-1,2,4-triazine-Based Library as Selective PDK1 Inhibitors with Therapeutic Potential in Highly Aggressive Pancreatic Ductal Adenocarcinoma” (International Journal of Molecular Sciences, 2023).

How the values were obtained:
[1] = test system: PSN-1 cells; test: 2D cytotoxicity, MTT assay, PSN-1; format: cell-based; settings: Homo sapiens, PSN1, 72 h, 72 h, MTT test, KRAS-mutant PSN-1; read-out: IC50 ±S.D. PSN-1 (2D cytotoxicity)
Description: (§1) All newly synthesized compounds were then screened for their cytotoxic activity against two human PDAC cell lines, namely a KRAS-wild-type PDAC cell line (BxPC-3 cells) and a KRAS-mutant PDAC cell line (PSN-1 cells). […] The cytotoxicity parameters, expressed in terms of IC50 and obtained after 72 h of drug exposure by MTT assay, are listed in the Supplementary Materials (Table S2).
(§2) The growth inhibitory effect on tumor cells was evaluated by means of the MTT assay. Briefly, 3–8 × 10^3 cells/well, dependent upon the growth characteristics of the cell line, were seeded in 96-well microplates in growth medium (100 μL). After 24 h, the medium was removed and replaced with a fresh one containing the compound to be studied at the appropriate concentration. Triplicate cultures were established for each treatment. After 72 h, each well was treated with 10 μL of a 5 mg/mL MTT saline solution, and following 5 h of incubation, 100 μL of a sodium dodecyl sulfate (SDS) solution in HCl 0.01 M was added. After overnight incubation, cell growth inhibition was detected by measuring the absorbance of each well at 570 nm using a Bio-Rad 680 microplate reader. The mean absorbance for each drug dose was expressed as a percentage of the control untreated well absorbance and plotted vs. drug concentration. IC50 values, the drug concentrations that reduce the mean absorbance at 570 nm to 50% of those in the untreated control wells, were calculated by the four-parameter logistic (4-PL) model. The evaluation was based on means from at least four independent experiments.

[2] = test system: BxPC-3 cells; test: 2D cytotoxicity, MTT assay, BxPC-3; format: cell-based; settings: Homo sapiens, BXPC-3, 72 h, 72 h, MTT test, KRAS-wild-type BxPC-3; read-out: IC50 ±S.D. BxPC-3 (2D cytotoxicity)
Description: as §1, §2

[3] = test system: PSN-1 cells; test: 3D spheroid cytotoxicity, acid phosphatase (APH) assay, PSN-1; settings: read-out: IC50 ±S.D. PSN-1 (3D cytotoxicity); spheroids, 72 h, APH test
[4] = test system: BxPC-3 cells; test: 3D spheroid cytotoxicity, acid phosphatase (APH) assay, BxPC-3; settings: read-out: IC50 ±S.D. BxPC-3 (3D cytotoxicity); spheroids, 72 h, APH test
Description: The PDAC cancer spheroids were treated with tested compounds for 72 h, and cell viability was assessed by means of the acid phosphatase (APH) assay (Table 3).
An APH-modified assay was used for determining cell viability in 3D spheroids, as previously described [61]. Briefly, the pre-seeded spheroids were treated with fresh medium containing the compound to be studied at the appropriate concentration (range 2.5–200 μM). Triplicate cultures were established for each treatment. After 72 h, each well was treated with 100 μL of the assay buffer (0.1 M sodium acetate, 0.1% Triton-X-100, supplemented with ImmunoPure p-nitrophenyl phosphate; Sigma Chemical Co., Ltd.) and, following 3 h of incubation, 10 μL of 1 M NaOH solution was added. […] The mean absorbance for each drug dose was expressed as a percentage of the control untreated well absorbance (T/C) and plotted vs. drug concentration. […] The evaluation was based on means from at least four independent experiments.

| Structure (SMILES) | melting point | also measured |
| --- | --- | --- |
| COc1ccc2[nH]cc(-c3nnc(N)nc3-c3cn(C)c4ccc(Br)cc34)c2c1 [5aa] | 267.8 °C |  |
| Cn1cc(-c2nc(N)nnc2-c2c[nH]c3ccc(F)cc23)c2ccccc21 [5v] | 285.9 °C | IC50 [1]: 0.2 ± 0.04 µM; IC50 [2]: 0.2 ± 0.03 µM |
| Cn1cc(-c2nc(N)nnc2-c2c[nH]c3ccccc23)c2ccccc21 [5m] | 246.6 °C |  |
| Nc1nnc(-c2c[nH]c3ccc(Br)cc23)c(-c2c[nH]c3ccc(Br)cc23)n1 [5d] | 208.2 °C | IC50 [1]: 0.3 ± 0.04 µM; IC50 [2]: 0.4 ± 0.1 µM |
| COc1ccc2c(c1)c(-c1nnc(N)nc1-c1c[nH]c3ccccc13)cn2C [6p] | 279.6 °C |  |
| O=C(O)C(Cl)Cl [DCA, Dichloroacetic acid, reference compound] |  | IC50 [3]: > 1000 µM; IC50 [4]: > 1000 µM |
| COc1ccc2c(c1)c(-c1nnc(N)nc1-c1cn(C)c3ccc(F)cc13)cn2C [6k] | 251.2 °C | IC50 [3]: 9.4 ± 0.2 µM; IC50 [4]: 22.3 ± 2.6 µM |
| COc1ccc2[nH]cc(-c3nc(N)nnc3-c3cn(C)c4ccc(OC)cc34)c2c1 [6y] | 263.3 °C | IC50 [1]: 0.6 ± 0.04 µM; IC50 [2]: 0.3 ± 0.1 µM |
| COc1ccc2[nH]cc(-c3nc(N)nnc3-c3cn(C)c4ccc(Br)cc34)c2c1 [6aa] | 241.8 °C |  |
| Cn1cc(-c2nnc(N)nc2-c2c[nH]c3ccc(F)cc23)c2ccccc21 [6v] | 295.8 °C | IC50 [1]: 0.2 ± 0.03 µM; IC50 [2]: 0.1 ± 0.02 µM |
| Cn1cc(-c2nc(N)nnc2-c2c[nH]c3ccc(Br)cc23)c2cc(Br)ccc21 [5r] | 239 °C |  |
| Nc1nnc(-c2c[nH]c3ccccc23)c(-c2c[nH]c3ccccc23)n1 [5a] | 288.2 °C |  |
| COc1ccc2[nH]cc(-c3nnc(N)nc3-c3cn(C)c4ccc(OC)cc34)c2c1 [5y] | 205.5 °C |  |
| Cn1cc(-c2nnc(N)nc2-c2c[nH]c3ccc(Br)cc23)c2cc(Br)ccc21 [6r] | 282.4 °C |  |
| COc1ccc2[nH]cc(-c3nc(N)nnc3-c3cn(C)c4ccccc34)c2c1 [6z] | 243.3 °C |  |
| Cn1cc(-c2nnc(N)nc2-c2cn(C)c3ccccc23)c2ccccc21 [5e] | 274.4 °C |  |
| Cn1cc(-c2nc(N)nnc2-c2c[nH]c3ccccc23)c2cc(F)ccc21 [5n] | 254.3 °C |  |
| Nc1nnc(-c2c[nH]c3ccc(F)cc23)c(-c2c[nH]c3ccc(F)cc23)n1 [5c] | 178.1 °C |  |
| Cn1cc(-c2nc(N)nnc2-c2c[nH]c3ccc(F)cc23)c2cc(F)ccc21 [6u] | 259.5 °C |  |
| COc1ccc2c(c1)c(-c1nnc(N)nc1-c1cn(C)c3ccc(OC)cc13)cn2C [5f] | 199.5 °C |  |
| Cn1cc(-c2nc(N)nnc2-c2c[nH]c3ccccc23)c2cc(Br)ccc21 [5o] | 271 °C | IC50 [1]: 0.5 ± 0.1 µM; IC50 [2]: 0.2 ± 0.03 µM |
| Cn1cc(-c2nnc(N)nc2-c2c[nH]c3ccccc23)c2ccccc21 [6m] | 311.3 °C |  |
| Cn1cc(-c2nnc(N)nc2-c2c[nH]c3ccc(F)cc23)c2cc(Br)ccc21 [6x] | 270.2 °C | IC50 [1]: 0.3 ± 0.04 µM; IC50 [2]: 0.3 ± 0.1 µM |
| Cn1cc(-c2nnc(N)nc2-c2c[nH]c3ccccc23)c2cc(Br)ccc21 [6o] | 291 °C | IC50 [1]: 0.4 ± 0.04 µM; IC50 [2]: 0.3 ± 0.03 µM |
| COc1ccc2c(c1)c(-c1nc(N)nnc1-c1c[nH]c3ccccc13)cn2C [5p] | 288.4 °C |  |
| COc1ccc2[nH]cc(-c3nnc(N)nc3-c3cn(C)c4ccccc34)c2c1 [5z] | 249.4 °C |  |
| Cn1cc(-c2nnc(N)nc2-c2cn(C)c3ccc(F)cc23)c2cc(F)ccc21 [5g] | 236.5 °C | IC50 [3]: 5.8 ± 0.8 µM; IC50 [4]: 19.5 ± 2.1 µM |
| Cn1cc(-c2nc(N)nnc2-c2c[nH]c3ccc(Br)cc23)c2cc(F)ccc21 [5t] | 266.9 °C | IC50 [1]: 0.4 ± 0.1 µM; IC50 [2]: 1.4 ± 0.2 µM |
| Cn1cc(-c2nnc(N)nc2-c2c[nH]c3ccc(Br)cc23)c2cc(F)ccc21 [6t] | 314.3 °C |  |
